# Laboratory results published in patent publication US9914750B2, “Synthetic peptides and peptide mimetics” (University of Louisville Research Foundation, priority 2007, dated 2018).
# Entries after “also recorded” stand apart in the source; their conditions may differ. No end group written: not given here.
# Key:
# [1] = system: RAW 264.7 cells; assay: Assay for inflammation: TNFα secretion with peptides alone (ELISA); format: cell-based, mouse
# Description: FIGS. 15A and 15B. FIG. 15A. Inhibition of endotoxin-stimulated TNFα secretion. RAW 264.7 macrophage cells were stimulated with 100 ng/ml LPS in the presence or absence of the PSP-derived peptides GK7, KL11 or GL13 (200 μg/ml). Polymyxin B (PMX) was used as a positive control. Further controls consisted of peptides alone without LPS stimulation. TNFα secretion was analyzed by ELISA of the RAW culture medium. The data are from triplicate RAW culture dishes for each condition. *) different from LPS alone P<0.03, **) P<0.0002. FIG. 15B. Dose response curve for the inhibition of LPS-induced TNFα secretion by GL-13.
# To determine if the PSP peptides cause an inflammatory response in RAW 264.7 cells, the cells were incubated with each peptide for 24 h and TNFα secretion was quantitated by ELISA.
# The vaccine adjuvant monophosphoryl lipid A (MPLA) a low-toxicity derivative of LPS was used to stimulate RAW cells in the presence or absence of PSP peptides (200 μg/ml) or the anti-inflammatory peptide polymyxin B (PMX). Control samples were incubated with the peptides alone.
# [2] = system: C57BL/6 mice; assay: LPS sepsis model, D-galactosamine sensitized mice; format: in vivo
# Description: FIG. 18. GL-13 Protects Mice in an LPS Sepsis Model. C57BL/6 mice were sensitized with D-galactosamine and injected with 100 ng/mouse (50 μg/kg) of P. aeruginosa LPS that had been preincubated for 1 h RT with or without 100 μg/mouse of GL-13. Controls received LPS and 0.9% saline. […] The results are from two independent experiments.
# C57BL/6 mice were sensitized with D-galactosamine and injected with 100 ng/mouse (50 μg/kg) of P. aeruginosa LPS that had been preincubated for 1 h RT with or without 100 μg/mouse of GL-13 (FIG. 18). Controls received LPS and 0.9% saline. […] The results are from two independent experiments.
# [3] = system: RAW 264.7 cells; assay: Cell death assay, trypan blue; format: cell-based, mouse; details: 200 μg/ml, 24 h
# Description: FIG. 21: RAW Cell Viability. RAW 264.7 cells were incubated with 200 μg/ml of PSP peptides for 24 h. At the end of the incubation period the cells were stained with trypan blue and photographed in the light microscope. No significant cell death was detected with any of the peptides.
# The inventors have used three different assays for analysis of cytotoxicity in mammalian cells: trypan blue exclusion, […], and ATP production. Experiments have been performed with rat pituitary GH4C1 cells and mouse RAW 264.7 cells. The cells were incubated with PSP peptides for 24 h followed by staining with trypan blue to identify permeabilized and dead cells. […] Clear cytotoxicity was noted when the cells were incubated with LPS.
# RAW 264.7 cells were incubated with 200 μg/ml of PSP peptides for 24 h. At the end of the incubation period the cells were stained with trypan blue and photographed in the light microscope. No significant cell death was detected with any of the peptides (FIG. 21).
# [4] = system: sheep red blood cells; assay: Hemagglutination assay; format: cell-based; details: PBS, absence of serum, 2 h
# Description: FIG. 22: Hemagglutination of sheep red blood cells. RBCs were washed in PBS and incubated for 2 h in microtiter plates in PBS±5% fetal calf serum. Peptide concentrations were 83 μg/ml. The microtiter plate was imaged. Agglutinated red blood cells form a wide mat of cells, while non-agglutinated cells form a button shaped pellet.
# Briefly, unmodified sheep erythrocytes (Cappel, M P Biomedicals, Irvine, Calif.) were washed in PBS and suspended at 1% in PBS. Diluted erythrocytes and 20 μg/ml of each peptide in PBS were mixed in polypropylene microtiter plates (120 μl per well) and incubated for 2 h at 35° C. The plates were imaged on a Kodak Image station.
# [5] = preliminary results; mice I.P. injection
substance,measurement,setting,value
"GQIINLKASLDLL-NH2 [GL13-NH2, GQIINLKASLDLL-(CONH2)]",TNFα secretion with peptide alone,[1],did not stimulate TNFα secretion
same,lethality after intra-peritoneal injection,[2],did not cause lethality
same,"cell death of RAW 264.7 macrophages, trypan blue",[3],did not stimulate TNFα secretion or cause macrophage cell death; also recorded: did not cause cell death; also recorded: not cytotoxic to macrophages
same,hemagglutination (words),[4],caused passive hemagglutination
same,hemagglutination (words),[4]; listed as GL-13-NH2,caused hemagglutination
same,toxicity,[5],low toxicity
